# Columns and labels:
# Assay in all cases: relative viability (nuclei count vs DMSO), 5 days (fraction); higher = more cells survive
# H3255 = tested on: H3255
# Method in brief: (§1)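 Cells from lung cancer lines were seeded into 1536-well plates and, one day later, dosed by pin tool. Treatments were either a single drug or a fixed dose of an anchor drug with five library-drug doses (not always all listed) in √10 steps. After 5 days, nuclei were stained in a one-step fixation (final 0.05% Triton X-100, 1% formaldehyde, 1 ug/ml Hoechst) and counted on 4× images, and relative viability is the treated-to-vehicle nuclei ratio, as the median of duplicate plates.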
# NCI-H1915 = tested on: NCI-H1915
# Method in brief: as §1
# LXF-289 = tested on: LXF-289
# Method in brief: as §1
# A-427 = tested on: A-427
# Method in brief: as §1
# SK-MES-1 = tested on: SK-MES-1
# Method in brief: as §1
# NCI-H522 = tested on: NCI-H522
# Method in brief: as §1
# NCI-H2087 = tested on: NCI-H2087
# Method in brief: as §1
# SW 1573 = tested on: SW 1573
# Method in brief: as §1
# NCI-H1793 = tested on: NCI-H1793
# Method in brief: as §1
# NCI-H1975 = tested on: NCI-H1975
# Method in brief: as §1
# NCI-H2170 = tested on: NCI-H2170
# Method in brief: as §1
# LOU-NH91 = tested on: LOU-NH91
# Method in brief: as §1
# SW 900 = tested on: SW 900
# Method in brief: as §1
# NCI-H358 = tested on: NCI-H358
# Method in brief: as §1
# HCC-44 = tested on: HCC-44
# Method in brief: as §1
# NCI-H520 = tested on: NCI-H520
# Method in brief: as §1
# HCC-827 = tested on: HCC-827
# Method in brief: as §1
# COR-L 105 = tested on: COR-L 105
# Method in brief: as §1
# LCLC-103H = tested on: LCLC-103H
# Method in brief: as §1
# NCI-H2023 = tested on: NCI-H2023
# Method in brief: as §1
# NCI-H1944 = tested on: NCI-H1944
# Method in brief: as §1
# NCI-H1993 = tested on: NCI-H1993
# Method in brief: as §1
smiles,measurement,setting,value
Cc1csc(=NC2CCCCC2)n1/N=C/c1ccc(O)c(O)c1O [MIM1] + Cc1cc(Nc2cc(N3CCN(C)CC3)nc(Sc3ccc(NC(=O)C4CC4)cc3)n2)n[nH]1 [Tozasertib] (partner 0.1 µM),relative viability,H3255; first compound 0.2 µM,0.526
same,relative viability,H3255; first compound 0.6325 µM,0.54
same,relative viability,H3255; first compound 2 µM,0.601
same,relative viability,H3255; first compound 6.325 µM,0.537
same,relative viability,H3255; first compound 20 µM,0.277
same,relative viability,NCI-H1915; first compound 0.2 µM,0.499
same,relative viability,NCI-H1915; first compound 0.6325 µM,0.403
same,relative viability,NCI-H1915; first compound 2 µM,0.337
same,relative viability,NCI-H1915; first compound 6.325 µM,0.305
same,relative viability,NCI-H1915; first compound 20 µM,0.182
same,relative viability,LXF-289; first compound 0.2 µM,0.167
same,relative viability,LXF-289; first compound 0.6325 µM,0.217
same,relative viability,LXF-289; first compound 2 µM,0.198
same,relative viability,LXF-289; first compound 6.325 µM,0.181
same,relative viability,LXF-289; first compound 20 µM,0.117
same,relative viability,A-427; first compound 0.2 µM,0.266
same,relative viability,A-427; first compound 2 µM,0.202
same,relative viability,A-427; first compound 6.325 µM,0.249
same,relative viability,A-427; first compound 20 µM,0.164
same,relative viability,SK-MES-1; first compound 0.2 µM,0.909
same,relative viability,SK-MES-1; first compound 0.6325 µM,0.848
same,relative viability,SK-MES-1; first compound 2 µM,0.742
same,relative viability,SK-MES-1; first compound 6.325 µM,0.643
same,relative viability,SK-MES-1; first compound 20 µM,0.492
same,relative viability,NCI-H522; first compound 0.2 µM,0.622
same,relative viability,NCI-H522; first compound 0.6325 µM,0.572
same,relative viability,NCI-H522; first compound 2 µM,0.484
same,relative viability,NCI-H522; first compound 6.325 µM,0.608
same,relative viability,NCI-H522; first compound 20 µM,0.452
same,relative viability,NCI-H2087; first compound 0.2 µM,0.26
same,relative viability,NCI-H2087; first compound 0.6325 µM,0.284
same,relative viability,NCI-H2087; first compound 2 µM,0.249
same,relative viability,NCI-H2087; first compound 6.325 µM,0.22
same,relative viability,NCI-H2087; first compound 20 µM,0.2
same,relative viability,SW 1573; first compound 0.2 µM,0.21
same,relative viability,SW 1573; first compound 0.6325 µM,0.197
same,relative viability,SW 1573; first compound 2 µM,0.257
same,relative viability,SW 1573; first compound 6.325 µM,0.127
same,relative viability,SW 1573; first compound 20 µM,0.128
same,relative viability,NCI-H1793; first compound 0.2 µM,0.405
same,relative viability,NCI-H1793; first compound 2 µM,0.435
same,relative viability,NCI-H1793; first compound 6.325 µM,0.298
same,relative viability,NCI-H1793; first compound 20 µM,0.34
same,relative viability,NCI-H1975; first compound 0.2 µM,0.643
same,relative viability,NCI-H1975; first compound 0.6325 µM,0.807
same,relative viability,NCI-H1975; first compound 2 µM,0.699
same,relative viability,NCI-H1975; first compound 6.325 µM,0.338
same,relative viability,NCI-H1975; first compound 20 µM,0.254
same,relative viability,NCI-H2170; first compound 0.2 µM,0.706
same,relative viability,NCI-H2170; first compound 0.6325 µM,0.721
same,relative viability,NCI-H2170; first compound 2 µM,0.62
same,relative viability,NCI-H2170; first compound 6.325 µM,0.478
same,relative viability,NCI-H2170; first compound 20 µM,0.206
same,relative viability,LOU-NH91; first compound 0.2 µM,0.65
same,relative viability,LOU-NH91; first compound 0.6325 µM,0.657
same,relative viability,LOU-NH91; first compound 2 µM,0.51
same,relative viability,LOU-NH91; first compound 6.325 µM,0.581
same,relative viability,LOU-NH91; first compound 20 µM,0.225
same,relative viability,SW 900; first compound 0.2 µM,0.657
same,relative viability,SW 900; first compound 0.6325 µM,0.722
same,relative viability,SW 900; first compound 2 µM,0.495
same,relative viability,SW 900; first compound 6.325 µM,0.528
same,relative viability,SW 900; first compound 20 µM,0.183
same,relative viability,NCI-H358; first compound 0.2 µM,0.106
same,relative viability,NCI-H358; first compound 0.6325 µM,0.0936
same,relative viability,NCI-H358; first compound 2 µM,0.129
same,relative viability,NCI-H358; first compound 6.325 µM,0.0878
same,relative viability,NCI-H358; first compound 20 µM,0.0838
same,relative viability,HCC-44; first compound 0.2 µM,0.962
same,relative viability,HCC-44; first compound 0.6325 µM,1.1
same,relative viability,HCC-44; first compound 2 µM,0.387
same,relative viability,HCC-44; first compound 6.325 µM,0.584
same,relative viability,HCC-44; first compound 20 µM,0.184
same,relative viability,NCI-H520; first compound 0.2 µM,0.55
same,relative viability,NCI-H520; first compound 0.6325 µM,0.419
same,relative viability,NCI-H520; first compound 2 µM,0.463
same,relative viability,NCI-H520; first compound 6.325 µM,0.428
same,relative viability,NCI-H520; first compound 20 µM,0.375
same,relative viability,HCC-827; first compound 0.2 µM,0.43
same,relative viability,HCC-827; first compound 0.6325 µM,0.404
same,relative viability,HCC-827; first compound 2 µM,0.411
same,relative viability,HCC-827; first compound 6.325 µM,0.169
same,relative viability,HCC-827; first compound 20 µM,0.177
same,relative viability,COR-L 105; first compound 0.2 µM,0.573
same,relative viability,COR-L 105; first compound 0.6325 µM,0.35
same,relative viability,COR-L 105; first compound 2 µM,0.341
same,relative viability,COR-L 105; first compound 6.325 µM,0.354
same,relative viability,COR-L 105; first compound 20 µM,0.338
same,relative viability,LCLC-103H; first compound 0.2 µM,0.609
same,relative viability,LCLC-103H; first compound 0.6325 µM,0.426
same,relative viability,LCLC-103H; first compound 2 µM,0.505
same,relative viability,LCLC-103H; first compound 6.325 µM,0.41
same,relative viability,LCLC-103H; first compound 20 µM,0.268
same,relative viability,NCI-H2023; first compound 0.2 µM,0.32
same,relative viability,NCI-H2023; first compound 0.6325 µM,0.345
same,relative viability,NCI-H2023; first compound 2 µM,0.3
same,relative viability,NCI-H2023; first compound 6.325 µM,0.237
same,relative viability,NCI-H2023; first compound 20 µM,0.109
same,relative viability,NCI-H1944; first compound 0.2 µM,0.226
same,relative viability,NCI-H1944; first compound 0.6325 µM,0.288
same,relative viability,NCI-H1944; first compound 2 µM,0.235
same,relative viability,NCI-H1944; first compound 6.325 µM,0.231
same,relative viability,NCI-H1944; first compound 20 µM,0.143
same,relative viability,NCI-H1993; first compound 0.2 µM,0.57
same,relative viability,NCI-H1993; first compound 0.6325 µM,0.538
same,relative viability,NCI-H1993; first compound 2 µM,0.539
same,relative viability,NCI-H1993; first compound 6.325 µM,0.518
same,relative viability,NCI-H1993; first compound 20 µM,0.433
